Test results reported in patent US9688637B2, “3-amidobenzamides and uses thereof for increasing cellular levels of A3G and other A3 family members” (Northwestern University, priority 2014, dated 2017).

Tests used:
A3G-Luc = A3G-Luc luciferase screen in 293T cells stably expressing A3G-Luc; assay type: cell-based, human; settings: for A3G-Luc Activity (% of Relative Light Units compared to DMSO treated control): 10 μM, 48 hrs, DMSO = 100%
Excerpt: This background led to construction of cell lines to use in a search for compounds that might boost levels of A3s in the HIV target cells of the majority of HIV-infected persons who are non-controllers. The goal is to test a strategy of using such a booster in acute/early infection to prevent the hypothesized decrease of A3G and related A3s in an effort to increase “control” in persons lacking HLA B57/27-associated control. […] 293T and TZM-bl cells were maintained in DMEM (containing 4.5 g/liter glucose, L-glutamine, and sodium pyruvate) medium plus 10% fetal bovine serum, 50 IU/ml penicillin, and 50 μg/ml streptomycin at 37° C. and 5% CO2 throughout the experiments. […]. After collecting viral supernatant, 293T cells were infected with viral particles harboring the A3G-Luc expressing vector and selected with puromycin (0.75 μg/ml) for three days. Ten single cell clones of stable cells were isolated and tested for expression of A3G-Luc protein by both immunoblotting using antibody against A3G and measuring luciferase activity. Expressions in cell lines used for subsequent experiments are depicted in FIG. 2, upper panel. The A3G-Luc fusion protein was sensitive to Vif-mediated degradation (FIG. 3). Similar cells lines stably expressing A3F were constructed with the same methods (not shown).
To screen compounds that can boost A3G levels, 293T cells (25,000 cells per well in 96-well plate) stably expressing A3G-Luc protein or A3G-Luc/Vif proteins were plated. […] After 48 hrs of incubation with compounds culture medium was removed from each well and replaced with 100 μl of Britelite Plus luciferase assay substrate (PerkinElmer). Following 5 min. of incubation at room temperature, 75 μl of each cell lysate was transferred to a 96-well OptiPlate 96 (PerkinElmer) and luminescence was measured in a VICTOR X2 Multilabel Reader (PerkinElmer). Relative activity of compounds for their boosting capability A3G-Luc activity was calculated by plotting DMSO-treated A3G-Luc or A3G-Luc/Vif cells as 100%. Cellular cytotoxicity was measured by counting number of cells after 48 hrs of incubation with compounds compared to DMSO treated cells.

BHPrE = assay: Cancer cell death, cell numbers vs DMSO; assay type: cell-based; settings: 6 μM, 8 days; prostate cell line, wild-type functional p53
Excerpt: (§1) To test the effect of the compounds described below on cancer cell death, cell lines derived from different types of cancer were studied in vitro. MCF10A, MCF7, T47D, MDA-MB-157 and MDA-MB-231 are breast cancer cell lines. NHPrE, BHPrE, RWPE1, DU145, and PC3 cells are prostate cell lines. HeLa is cervical cancer cell line. HEK293 is human embryonic kidney cell line lacking A3B expression. There are differences among these cancer cell lines in p53 expression (44-46). MCF10A, MCF7, NHPrE, BHPrE and HEK293 cells have wild-type and functional p53. RWPE1 and HeLa cells have wild-type p53 but the p53 protein in these cell line is not functional because of effects of human papilloma virus E6 protein. T47D, MDA-MB-231, and DU145 cell lines have mutant p53, while MDA-MB-157 and PC3 cells have no p53 expression. 25,000 cells per well were plated in 6 well plates. In the case of HEK293 cells. 500,000 cells per well in 6-well plates were used instead. After 24 hrs, culture medium was replaced with new medium containing either DMSO as control or one of the compounds described below (6 μM per well concentration). After 8 days incubation with compounds, cell numbers were counted from each well and plotted with number of cells from DMSO treated sample as 100%. We performed the experiments at least twice. HEK293, MCF7 and T47D cells they were maintained for 16 days with compounds instead of 8 days.

DU145 = assay: Cancer cell death, cell numbers vs DMSO; assay type: cell-based; settings: 6 μM, 8 days; prostate cell line, mutant p53
Excerpt: as §1

HeLa = assay: Cancer cell death, cell numbers vs DMSO; assay type: cell-based; settings: 6 μM, 8 days; cervical cancer cell line, p53 not functional
Excerpt: as §1

MCF10A = assay: Cancer cell death, cell numbers vs DMSO; assay type: cell-based; settings: 6 μM, 8 days; breast cell line, wild-type functional p53
Excerpt: as §1

MCF7 = assay: Cancer cell death, cell numbers vs DMSO; assay type: cell-based; settings: 6 μM, 16 days; breast cancer cell line, wild-type functional p53
Excerpt: as §1

MDA-MB-157 = assay: Cancer cell death, cell numbers vs DMSO; assay type: cell-based; settings: 6 μM, 8 days; breast cancer cell line, no p53 expression
Excerpt: as §1

MDA-MB-231 = assay: Cancer cell death, cell numbers vs DMSO; assay type: cell-based; settings: 6 μM, 8 days; breast cancer cell line, mutant p53
Excerpt: as §1

NHPrE = assay: Cancer cell death, cell numbers vs DMSO; assay type: cell-based; settings: 6 μM, 8 days; prostate cell line, wild-type functional p53
Excerpt: as §1

PC3 = assay: Cancer cell death, cell numbers vs DMSO; assay type: cell-based; settings: 6 μM, 8 days; prostate cell line, no p53 expression
Excerpt: as §1

RWPE1 = assay: Cancer cell death, cell numbers vs DMSO; assay type: cell-based; settings: 6 μM, 8 days; prostate cell line, p53 not functional
Excerpt: as §1

T47D = assay: Cancer cell death, cell numbers vs DMSO; assay type: cell-based; settings: 6 μM, 16 days; breast cancer cell line, mutant p53
Excerpt: as §1

| Compound | A3G-Luc Activity (% of Relative Light Units compared to DMSO treated control) (A3G-Luc) [%] | increase of A3G (A3G-Luc; 293T stably expressing A3G-Luc, without Vif (FIG. 6)) | cell killing (cell numbers vs DMSO) (BHPrE) | cell killing (cell numbers vs DMSO) (DU145) | cell killing (cell numbers vs DMSO) (HeLa) | cell killing (cell numbers vs DMSO) (MCF10A) | cell killing (cell numbers vs DMSO) (MCF7) | cell killing (cell numbers vs DMSO) (MDA-MB-157) | cell killing (cell numbers vs DMSO) (MDA-MB-231) | cell killing (cell numbers vs DMSO) (NHPrE) | cell killing (cell numbers vs DMSO) (PC3) | cell killing (cell numbers vs DMSO) (RWPE1) | cell killing (cell numbers vs DMSO) (T47D) |
| --- | --- | --- | --- | --- | --- | --- | --- | --- | --- | --- | --- | --- | --- |
| COc1ccc(C(=O)Nc2ccc(Cl)c(Cl)c2)cc1NC(=O)C(C)C [NU-52] | 178 | about 3 fold | not killed | kill | kill | not killed | not killed | kill | kill | not killed | kill | kill | kill |
| COc1ccc(C(=O)Nc2ccc(Cl)c(Cl)c2)cc1NC(=O)C1CCC1 [NU-302] | 196 |  | not killed | kill | kill | not killed | not killed | kill | kill | not killed | kill | kill | kill |
| COc1ccc(C(=O)Nc2ccc(Cl)c(Cl)c2)cc1NC(=O)CC1CC1 [NU-466] | 318 |  | not killed | kill | kill | not killed | not killed | kill | kill | not killed | kill | kill | kill |
